Data on 35 molecules can be found in patent US12595252B2, “Inhibitors of SARM1” (DISARM THERAPEUTICS, INC., priority 2019, dated 2026).

The first assay concerns the target T1, SARM1 (Homo sapiens, UniProt Q6SZW1).
T1 construct: made in house; host or cells: NRK1-HEK293T cells, transiently transfected; clarified lysate used unpurified
T1 sequence (Q6SZW1 with tags, fused parts or gaps): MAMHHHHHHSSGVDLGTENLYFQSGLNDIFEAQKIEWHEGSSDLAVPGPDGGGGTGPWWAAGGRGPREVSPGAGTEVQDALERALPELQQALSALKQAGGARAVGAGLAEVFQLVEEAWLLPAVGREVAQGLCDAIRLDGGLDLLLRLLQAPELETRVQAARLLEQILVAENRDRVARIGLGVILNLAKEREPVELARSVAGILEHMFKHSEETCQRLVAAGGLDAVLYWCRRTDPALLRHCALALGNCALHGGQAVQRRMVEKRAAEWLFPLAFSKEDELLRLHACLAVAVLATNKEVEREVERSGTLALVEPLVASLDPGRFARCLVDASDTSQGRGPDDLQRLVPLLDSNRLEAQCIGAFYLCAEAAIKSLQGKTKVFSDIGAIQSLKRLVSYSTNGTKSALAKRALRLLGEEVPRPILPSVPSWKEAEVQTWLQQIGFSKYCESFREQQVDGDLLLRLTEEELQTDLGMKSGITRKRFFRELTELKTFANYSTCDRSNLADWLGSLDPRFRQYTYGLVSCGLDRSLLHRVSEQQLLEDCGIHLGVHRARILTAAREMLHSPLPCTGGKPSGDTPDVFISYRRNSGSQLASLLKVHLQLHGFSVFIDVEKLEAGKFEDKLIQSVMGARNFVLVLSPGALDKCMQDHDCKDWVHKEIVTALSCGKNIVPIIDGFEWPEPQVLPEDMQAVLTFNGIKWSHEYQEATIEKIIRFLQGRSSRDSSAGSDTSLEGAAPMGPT
Description: ARM-SAM-TIR SARM1 IC50 assay (NADase activity, NAD+ cleavage). It counts as biochemical.
Conditions: not given
As to the method:
This Example describes an assay of ARM-SAM-TIR NADase activity and use of this assay to measure the efficacy of compounds of Formula I to block SARM1 mediated NAD+ cleavage. This assay is optimized in such a way as to characterize the efficacy of the compounds in Formula I to inhibit SARM1 activity and to calculate an IC50 value for each compound. This assay makes use of full length SARM1, which encompasses the ARM, SAM and TIR domains.
NRK1-HEK293T cells were seeded onto 150 cm^2 plates at 20×10^6 cells per plate. The next day, the cells were transfected with 15 μg ARM-SAM-TIR expression plasmid, SEQ ID NO: 1.
The cultures were supplemented with 1 mM NR at time of transfection to minimize toxicity from ARM-SAM-TIR overexpression. Forty-eight hours after transfection, cells were harvested, pelleted by centrifugation at 1,000 rpm (Sorvall ST 16R centrifuge, Thermo Fisher), and washed once with cold PBS (0.01 M phosphate buffered saline NaCl 0.138 M; KCl 0.0027 M; pH 7.4). The cells were resuspended in PBS with protease inhibitors (cOmplete™ protease inhibitor cocktail, Roche product #11873580001) and cell lysates were prepared by sonication (Branson Sonifer 450, output=3, 20 episodes of stroke). The lysates were centrifuged (12,000×g for 10 min at 4° C.) to remove cell debris and the supernatants (containing ARM-SAM-TIR protein) were stored at −80° C. for later use in the in vitro ARM-SAM-TIR NADase assay (see below). Protein concentration was determined by the Bicinchoninic (BCA) method and used to normalize lysate concentrations.
The enzymatic assay was performed in a 384-well polypropylene plate in Dulbecco's PBS buffer in a final assay volume of 20 μL. ARM-SAM-TIR lysate with a final concentration of 5 μg/mL was pre-incubated with the respective compound at 1% DMSO final assay concentration over 2 h at room temperature. The reaction was initiated by addition of 5 μM final assay concentration of NAD+ as substrate. After a 2 hr room temperature incubation, the reaction was terminated with 40 μL of stop solution of 7.5% trichloroacetic acid in acetonitrile. The NAD+ and ADPR concentrations were analyzed by a RapidFire High Throughput Mass Spectrometry System (Agilent Technologies, Santa Clara, Calif.) using an API4000 triple quadrupole mass spectrometer (AB Sciex Framingham, Mass.).
The molecule `COc1cncc(NCc2ccc(N3CCNCC3)nc2)n1` [Example 81] gave an IC50 of 5 to 15 µM.

With `COc1cncc(NCc2cncnc2)n1` [Example 22], the IC50 fell in the range of 5 to 15 µM.

Still in this assay, the particulars now being: ARM-SAM-TIR lysate 5 μg/mL from NRK1-HEK293T cells; 2 h pre-incubation; 5 μM NAD+; 2 hr room temperature; NAD+ and ADPR by RapidFire MS; read-out: SARM1 IC50.
In the case of `CCOc1cncc(NC(C)c2ccccn2)n1` (centres unmarked) [Example 184], the IC50 is greater than 30 µM.

Turning to `COc1cncc(NCc2ccc(C#N)cc2)n1` [Example 129], the IC50 is 5 to 15 µM.

Regarding `COc1cncc(NCC2CCCOC2)n1` (centres unmarked) [Example 210], the IC50 was greater than 30 µM.

With `COc1cncc(NCc2cncc3ccccc23)n1` [Example 27], the IC50 is 5 to 15 µM.

For the molecule `COc1cncc(NCc2ccc(Br)cc2)n1` [Example 101], the IC50 was less than 5 µM.

With `COc1cncc(NCc2ccc(C(C)(C)O)cc2)n1` [Example 144], the IC50 fell in the range of 5 to 15 µM.

As to `COc1cncc(N(C)S(=O)(=O)c2ccccc2)c1` [Example 208], the IC50 is greater than 30 µM.

Turning to `CNc1cncc(OCCCCN)n1` [Example 173], the IC50 is greater than 30 µM.

As for `CCCCCOc1cncc(NCc2cccnc2)n1` [Example 15], the IC50 is greater than 30 µM.

Regarding `COc1cncc(NCc2cn(C)cn2)n1` [Example 55], the IC50 was in the range of 15 to 30 µM.

Regarding `COc1cncc(NS(=O)(=O)c2ccccc2)c1` [Example 209], the IC50 is greater than 30 µM.

Regarding `COc1ccc(CNc2cncc(OC)n2)cc1` [Example 38], the IC50 lay in the range of 5 to 15 µM.

For the molecule `CN(C)C(=O)c1cncc(NCc2cccnc2)n1` [Example 213], the IC50 is greater than 30 µM.

For `COc1cc(NCc2cccnc2)n[nH]c1=O` [Example 140], the IC50 lay in the range of 15 to 30 µM.

Take `COc1cc(NCc2ccc(S(N)(=O)=O)cc2)cnn1` [Example 175]: the IC50 is greater than 30 µM.

In the case of `COc1cncc(NCc2ccc(-c3nn[nH]n3)cc2)n1` [Example 158], the half-maximal inhibitory concentration (IC50) lay in the range of 15 to 30 µM.

Consider `COc1cncc(NCc2cnn(CCN(C)C)c2)n1` [Example 104], for which the IC50 fell in the range of 5 to 15 µM.

For the molecule `CCOc1cncc(NC(=O)c2ccccc2)n1` [Example 192], the half-inhibitory concentration (IC50) is greater than 30 µM.

Take `COc1cnnc(NCc2cn[nH]c2)c1` [Example 135]: the half-maximal inhibitory concentration (IC50) lay in the range of 15 to 30 µM.

With `COc1cncc(NCc2cccc(F)c2)n1` [Example 39], the IC50 is 5 to 15 µM.

With `COc1cncc(NC(=O)c2ccccc2)c1` [Example 110], the IC50 was greater than 30 µM.

On to `c1cncc(CNc2cncc(-n3cccn3)n2)c1` [Example 28], for which the IC50 was in the range of 5 to 15 µM.

Take `COc1cc(NCc2cccnc2)cnn1` [Example 95]: the IC50 is greater than 30 µM.

In the case of `CNc1cncc(OC)c1` [Example 171], the IC50 fell in the range of 5 to 15 µM.

As for `COc1cncc(NC(=O)c2ccc3ccccc3n2)n1` [Example 23], the 50% inhibitory concentration (IC50) lay in the range of 5 to 15 µM.

Take `COc1cncc(C(=O)Nc2ccccc2)n1` [Example 197]: the IC50 is greater than 30 µM.

Consider `COc1cncc(NCc2ccc(N3CCC(F)(F)CC3)nc2)n1` [Example 130], for which the IC50 is 5 to 15 µM.

Take `COc1cncc(NCc2ccc(C(F)(F)F)nc2)n1` [Example 91]: the IC50 fell in the range of 15 to 30 µM.

In the case of `COCCn1cc(CNc2cncc(OC)n2)cn1` [Example 93], the IC50 was in the range of 5 to 15 µM.

`CCOc1cncc(OCc2cccnc2)n1` [Example 190]: the IC50 was greater than 30 µM.

Regarding `COc1cncc(NCc2ccn(C)n2)n1` [Example 54], the 50% inhibitory concentration (IC50) lay within 5 to 15 µM.

With `CCN1CCN(c2ccc(CNc3cncc(OC)n3)cn2)CC1` [Example 8], the IC50 was in the range of 5 to 15 µM.

On to `COc1cncc(N)c1` [Example 160], for which the IC50 was in the range of 15 to 30 µM.
